pIC50: −log10 of the molar value.
What follows are molecules tested against T1, Human ATX protein (Homo sapiens, UniProt Q13822) (assay: ATX biochemical FRET assay with FS-3 substrate). Details: FRET substrate FS-3 2 μM, ATX 1.0 μg/mL, 30 minutes pre-incubation, 2 hours at room temperature; read-out: IC50.
T1 construct: made in house
In short: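 Enzyme at 1.0 μg/mL final, pre-incubated with compound (10-point, 3-fold series) for 30 min at RT in Tris pH 7.4 buffer with NaCl, KCl, CaCl2, MgCl2 and 1 mg/mL fatty-acid-free BSA. After FS-3 addition, 2 h at RT protected from light; fluorescence at 485/538 nm.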

SMILES | pIC50
CC[C@H]1CC[C@@H](Oc2ccc3ccc([C@H](C)N[C@H]4C[C@H](C(=O)O)C4(C)C)cc3c2C(F)(F)F)CC1 [Example 118a, (1S,3S)-3-(((S)-1-(7-((cis-4-ethylcyclohexyl)oxy)-8-(trifluoromethyl)naphthalen-2-yl)ethyl)amino)-2,2-dimethylcyclobutanecarboxylic acid] | ≥ 6.30
CC(N[C@H]1C[C@@H](C(=O)O)C1)c1ccc2ccc(O[C@H]3CC[C@@H](C)CC3)c(C(F)(F)F)c2c1 (stereo partly drawn) [Example 110, cis-3-((1-(7-((cis-4-methylcyclohexyl)oxy)-8-(trifluoromethyl)naphthalen-2-yl)ethyl)amino)cyclobutanecarboxylic acid] | ≥ 6.30
O=C(O)CC1CCC(NCc2ccc3ccc(O[C@H]4CC[C@@H](C(F)(F)F)CC4)c(C(F)(F)F)c3c2)CC1 (stereo partly drawn) [Example 126, 2-(4-(((8-(trifluoromethyl)-7-((cis-4-(trifluoromethyl)cyclohexyl)oxy)naphthalen-2-yl)methyl)amino)cyclohexyl)acetic acid] | ≥ 6.30
CC(c1ccc2ccc(O[C@H]3CC[C@@H](C)CC3)c(C(F)(F)F)c2c1)N1CCC[C@H](CC(=O)O)C1 (stereo partly drawn) [Example 81, 2-((3R)-1-(1-(7-((cis-4-methylcyclohexyl)oxy)-8-(trifluoromethyl)naphthalen-2-yl)ethyl)piperidin-3-yl)acetic acid] | ≥ 6.60
CC[C@H]1CC[C@@H](Oc2ccc3ccc([C@@H](C)N[C@H]4CC[C@@H](C(=O)O)CC4)cc3c2C(F)(F)F)CC1 [Example 135b, cis-4-(((R)-1-(7-((cis-4-ethylcyclohexyl)oxy)-8-(trifluoromethyl)naphthalen-2-yl)ethyl)amino)cyclohexanecarboxylic acid] | ≥ 6.60
CCC(c1ccc2ccc(O[C@H]3CC[C@@H](CC)CC3)c(C(F)(F)F)c2c1)N1CCC[C@H](CC(=O)O)C1 (stereo partly drawn) [Example 61, 2-((3R)-1-(1-(7-((cis-4-ethylcyclohexyl)oxy)-8-(trifluoromethyl)naphthalen-2-yl)propyl)piperidin-3-yl)acetic acid] | ≥ 6.60
CC[C@H]1CC[C@@H](Oc2ccc3ccc(C(C)N4CCC(C(=O)O)CC4)cc3c2C#N)CC1 (stereo partly drawn) [Example 72, 1-(1-(8-cyano-7-((cis-4-ethylcyclohexyl)oxy)naphthalen-2-yl)ethyl)piperidine-4-carboxylic acid] | ≥ 6.30
C[C@H](N[C@H]1CC[C@@H](C(=O)O)CC1)c1ccc2ccc(O[C@H]3CC[C@@H](C(F)(F)F)CC3)c(C(F)(F)F)c2c1 [Example 136a, cis-4-(((S)-1-(8-(trifluoromethyl)-7-((cis-4-(trifluoromethyl)cyclohexyl)oxy)naphthalen-2-yl)ethyl)amino)cyclohexanecarboxylic acid] | ≥ 7.00
O=C(O)C1CCC(NCc2ccc3ccc(O[C@H]4CC[C@@H](C(F)(F)F)CC4)c(C(F)(F)F)c3c2)C1 (stereo partly drawn) [Example 127, 3-(((8-(trifluoromethyl)-7-((cis-4-(trifluoromethyl)cyclohexyl)oxy)naphthalen-2-yl)methyl)amino)cyclopentanecarboxylic acid] | ≥ 6.30
CC[C@H]1CC[C@@H](Oc2ccc3ccc([C@H](C)N[C@@H]4C[C@H](C(=O)O)C4(C)C)cc3c2C(F)(F)F)CC1 [Example 117b, (1S,3R)-3-(((S)-1-(7-((cis-4-ethylcyclohexyl)oxy)-8-(trifluoromethyl)naphthalen-2-yl)ethyl)amino)-2,2-dimethylcyclobutanecarboxylic acid] | ≥ 7.00
CC[C@H]1CC[C@@H](Oc2ccc3ccc([C@@H](C)N[C@H]4C[C@@H](C(=O)O)C4(C)C)cc3c2C(F)(F)F)CC1 [Example 118d, (1R,3S)-3-(((R)-1-(7-((cis-4-ethylcyclohexyl)oxy)-8-(trifluoromethyl)naphthalen-2-yl)ethyl)amino)-2,2-dimethylcyclobutanecarboxylic acid] | ≥ 6.30
CC(NC1CC(C(=O)O)C1(C)C)c1ccc2ccc(O[C@H]3CC[C@@H](C)CC3)c(C(F)(F)F)c2c1 (stereo partly drawn) [Example 82, 2,2-dimethyl-3-((1-(7-((cis-4-methylcyclohexyl)oxy)-8-(trifluoromethyl)naphthalen-2-yl)ethyl)amino)cyclobutanecarboxylic acid] | ≥ 7.00
O=C(O)[C@H]1CC[C@H](NCc2ccc3ccc(O[C@H]4CC[C@@H](C(F)(F)F)CC4)c(C(F)(F)F)c3c2)CC1 [Example 125, trans-4-(((8-(trifluoromethyl)-7-((cis-4-(trifluoromethyl)cyclohexyl)oxy)naphthalen-2-yl)methyl)amino)cyclohexanecarboxylic acid] | ≥ 6.30

Same assay, conditions: IC50, FRET substrate FS-3 2 μM, ATX 1.0 μg/mL, 30 minutes pre-incubation, 2 hours at room temperature

SMILES | pIC50
CC(c1ccc2ccc(O[C@H]3CC[C@@H](C)CC3)c(C(F)F)c2c1)N1C2CCCC1CC(C(=O)O)C2 (stereo partly drawn) [Example 88, 9-(1-(8-(difluoromethyl)-7-((cis-4-methylcyclohexyl)oxy)naphthalen-2-yl)ethyl)-9-azabicyclo[3.3.1]nonane-3-carboxylic acid] | ≥ 7.00
CC[C@H]1CC[C@@H](Oc2ccc3ccc(C(C)N4C5CCCC4CC(C(=O)O)C5)cc3c2C(F)(F)F)CC1 (stereo partly drawn) [Example 56, 9-(1-(7-((cis-4-ethylcyclohexyl)oxy)-8-(trifluoromethyl)naphthalen-2-yl)ethyl)-9-azabicyclo[3.3.1]nonane-3-carboxylic acid] | ≥ 7.00
CC(c1ccc2ccc(O[C@H]3CC[C@@H](C(F)(F)F)CC3)c(C#N)c2c1)N1C2CCCC1CC(C(=O)O)C2 (stereo partly drawn) [Example 38, 9-(1-(8-cyano-7-((cis-4-(trifluoromethyl)cyclohexyl)oxy)naphthalen-2-yl)ethyl)-9-azabicyclo[3.3.1]nonane-3-carboxylic acid] | ≥ 7.00
CC[C@H]1CC[C@@H](Oc2ccc3ccc(CN4C5CCC4CC(C(=O)O)C5)cc3c2C#N)CC1 (stereo partly drawn) [Example 70, 8-((8-cyano-7-((cis-4-ethylcyclohexyl)oxy)naphthalen-2-yl)methyl)-8-azabicyclo[3.2.1]octane-3-carboxylic acid] | ≥ 7.00
C[C@H]1CC[C@@H](Oc2ccc3ccc(CN4C5CCCC4CC(C(=O)O)C5)cc3c2C#N)CC1 (stereo partly drawn) [Example 98, 9-((8-cyano-7-((cis-4-methylcyclohexyl)oxy)naphthalen-2-yl)methyl)-9-azabicyclo[3.3.1]nonane-3-carboxylic acid] | ≥ 7.00
CC(c1cc2c(C(F)(F)F)c(O[C@H]3CC[C@@H](C(F)(F)F)CC3)ccc2cc1F)N1C2CCC1CC(C(=O)O)C2 (stereo partly drawn) [Example 140, 8-(1-(3-fluoro-8-(trifluoromethyl)-7-((cis-4-(trifluoromethyl)cyclohexyl)oxy)naphthalen-2-yl)ethyl)-8-azabicyclo[3.2.1]octane-3-carboxylic acid] | ≥ 7.00
O=C(O)C1CC2CCC(C1)N2Cc1cc2c(C(F)(F)F)c(O[C@H]3CC[C@@H](C(F)(F)F)CC3)ccc2cc1F (stereo partly drawn) [Example 141, 8-((3-fluoro-8-(trifluoromethyl)-7-((cis-4-(trifluoromethyl)cyclohexyl)oxy)naphthalen-2-yl)methyl)-8-azabicyclo[3.2.1]octane-3-carboxylic acid] | ≥ 7.00
CC(c1ccc2ccc(O[C@H]3CC[C@@H](C)CC3)c(Cl)c2c1)N1C2CCC1CC(C(=O)O)C2 (stereo partly drawn) [Example 90, 8-(1-(8-chloro-7-((cis-4-methylcyclohexyl)oxy)naphthalen-2-yl)ethyl)-8-azabicyclo[3.2.1]octane-3-carboxylic acid] | ≥ 6.60
O=C(O)C1CC2CCC(C1)N2Cc1ccc2ccc(O[C@H]3CC[C@@H](C(F)(F)F)CC3)c(Cl)c2c1 (stereo partly drawn) [Example 26, 8-((8-chloro-7-((cis-4-(trifluoromethyl)cyclohexyl)oxy)naphthalen-2-yl)methyl)-8-azabicyclo[3.2.1]octane-3-carboxylic acid] | ≥ 6.60
CC[C@H]1CC[C@@H](Oc2ccc3ccc(C(C)N4C5CCC4CC(C(=O)O)C5)cc3c2C(F)(F)F)CC1 (stereo partly drawn) [Example 55, 8-(1-(7-((cis-4-ethylcyclohexyl)oxy)-8-(trifluoromethyl)naphthalen-2-yl)ethyl)-8-azabicyclo[3.2.1]octane-3-carboxylic acid] | ≥ 7.00
CC(c1ccc2ccc(O[C@H]3CC[C@@H](C(F)(F)F)CC3)c(C(F)(F)F)c2c1)N1C2CCC1CC(C(=O)O)C2 (stereo partly drawn) [Example 12, 8-{1-[7-(cis-4-trifluoromethyl-cyclohexyloxy)-8-trifluoromethyl-naphthalen-2-yl]-ethyl}-8-aza-bicyclo[3.2.1]octane-3-carboxylic acid] | ≥ 7.00
[2H]C([2H])([2H])[C@@H](c1ccc2ccc(O[C@H]3CC[C@@H](C(F)(F)F)CC3)c(C(F)(F)F)c2c1)N1C2CCC1CC(C(=O)O)C2 (stereo partly drawn) [Example 46, 8-((S)-1-(8-(trifluoromethyl)-7-((cis-4-(trifluoromethyl)cyclohexyl)oxy)naphthalen-2-yl)-2,2,2-trideuteroethyl)-8-azabicyclo[3.2.1]octane-3-carboxylic acid] | ≥ 7.00
C[C@H](c1ccc2ccc(O[C@H]3CC[C@@H](C(F)(F)F)CC3)c(C(F)(F)F)c2c1)N1C2CCCC1CC(C(=O)O)C2 (stereo partly drawn) [Example 137b, 9-((R)-1-(8-(trifluoromethyl)-7-((cis-4-(trifluoromethyl)cyclohexyl)oxy)naphthalen-2-yl)ethyl)-9-azabicyclo[3.3.1]nonane-3-carboxylic acid] | ≥ 7.00
C[C@@H](c1ccc2ccc(O[C@H]3CC[C@@H](C(F)(F)F)CC3)c(C(F)(F)F)c2c1)N1C2CCCC1CC(C(=O)O)C2 (stereo partly drawn) [Example 137a, 9-((S)-1-(8-(trifluoromethyl)-7-((cis-4-(trifluoromethyl)cyclohexyl)oxy)naphthalen-2-yl)ethyl)-9-azabicyclo[3.3.1]nonane-3-carboxylic acid] | ≥ 7.00
N#Cc1c(O[C@H]2CC[C@@H](C(F)(F)F)CC2)ccc2ccc(CN3C4CCC3CC(C(=O)O)C4)cc12 (stereo partly drawn) [Example 34, 8-((8-cyano-7-((cis-4-(trifluoromethyl)cyclohexyl)oxy)naphthalen-2-yl)methyl)-8-azabicyclo[3.2.1]octane-3-carboxylic acid] | ≥ 6.60

From US10017506B2, “ATX modulating agents” (BIOGEN MA INC., priority 2012, dated 2018)
